Measured values from US20040142923A1, “Pyrrolidine sulfonamides” (priority 2003, published 2004).

Biological target: human and rat GPR-14
Test: Radioligand binding ([125I] h-U-II)
Details: radioligand binding assay; HEK-293 cell membranes, 200 pM [125I] h-U-II; species (human or rat) not given
Protocol: HEK-293 cell membranes containing stable cloned human and rat GPR-14 (20 ug/assay) were incubated with 200 pM [125I] h-U-II (200 Ci/mmol^−1 in the presence of increasing concentrations of test compounds in DMSO (0.1 nM to 10 uM), in a final incubation volume of 200 ul (20 mM Tris-HCl, 5 mM MgCl2). Incubation was done for 30 minutes at room temperature followed by filtration GF/B filters with Brandel cell harvester. ^125I labeled U-II binding was quantitated by gamma counting. Nonspecific binding was defined by ^125I U-II binding in the presence of 100 nM of unlabeled human U-II. Analysis of the data was performed by nonlinear least square fitting.

Ki: 1500 nM
Structure (SMILES): O=C(NC1CCN(S(=O)(=O)c2cc(Cl)c(OC3CCNCC3)c(Cl)c2)C1)c1ccc(Cl)c(Cl)c1 (stereo not shown) [Example 5]
